This passage reports IC50 results from article PMC4488288, “Inhibition of the Inositol Kinase Itpkb Augments Calcium Signaling in Lymphocytes and Reveals a Novel Strategy to Treat Autoimmune Disease” (PLoS ONE, 2015).

For this test, the target named is T1, Itpkb (inositol trisphosphate 3' kinase B) (Mus musculus, UniProt B2RXC2).
T1 sequence (B2RXC2 1-942): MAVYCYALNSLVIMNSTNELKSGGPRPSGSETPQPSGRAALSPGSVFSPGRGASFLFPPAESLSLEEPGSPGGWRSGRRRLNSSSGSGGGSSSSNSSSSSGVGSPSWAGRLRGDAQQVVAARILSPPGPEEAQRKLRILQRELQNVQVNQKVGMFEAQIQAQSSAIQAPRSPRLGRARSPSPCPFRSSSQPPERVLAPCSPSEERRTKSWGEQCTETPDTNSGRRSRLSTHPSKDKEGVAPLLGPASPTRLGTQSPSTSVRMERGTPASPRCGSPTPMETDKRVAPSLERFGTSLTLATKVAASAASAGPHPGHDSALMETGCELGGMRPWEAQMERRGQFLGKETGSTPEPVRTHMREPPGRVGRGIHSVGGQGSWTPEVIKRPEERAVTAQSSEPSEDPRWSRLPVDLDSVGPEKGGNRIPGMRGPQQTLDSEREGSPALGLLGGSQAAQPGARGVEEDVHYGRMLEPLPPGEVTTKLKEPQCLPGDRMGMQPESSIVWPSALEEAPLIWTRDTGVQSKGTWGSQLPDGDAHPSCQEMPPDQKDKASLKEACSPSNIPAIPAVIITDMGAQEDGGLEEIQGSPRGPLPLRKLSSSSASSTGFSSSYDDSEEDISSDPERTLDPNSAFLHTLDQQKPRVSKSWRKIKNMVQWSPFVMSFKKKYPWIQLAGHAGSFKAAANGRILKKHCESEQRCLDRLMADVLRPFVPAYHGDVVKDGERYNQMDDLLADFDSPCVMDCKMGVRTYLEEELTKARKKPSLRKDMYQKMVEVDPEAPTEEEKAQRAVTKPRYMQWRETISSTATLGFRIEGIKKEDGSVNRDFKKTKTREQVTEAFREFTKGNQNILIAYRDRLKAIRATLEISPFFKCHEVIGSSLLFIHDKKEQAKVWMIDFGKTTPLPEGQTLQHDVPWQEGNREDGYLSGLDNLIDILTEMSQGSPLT
The test is described as follows: Kinase-Glo assay with purified Itpkb ([…] Itpkb, […] ATP, […] IP3). The test is classed as biochemical.

For GNF362, the IC50 was found to be 9 nM.

By IC50 is commonly meant the point on the concentration scale where inhibition reaches its midpoint. High values mean weaker potency in that assay, low ones greater potency in that assay.
